The structures appear in SMILES notation.

This note sets out measurements from ChEMBL document CHEMBL1649366, “Self-organizing molecular field analysis on human β-secretase nonpeptide inhibitors: 5, 5-disubstituted aminohydantoins” (Eur J Med Chem, 2011).

This assay deals with Beta-secretase 1 (Homo sapiens, UniProt P56817). The assay is described as follows: Inhibition of human BACE1.
Beta-secretase 1, sequence (P56817 whole entry): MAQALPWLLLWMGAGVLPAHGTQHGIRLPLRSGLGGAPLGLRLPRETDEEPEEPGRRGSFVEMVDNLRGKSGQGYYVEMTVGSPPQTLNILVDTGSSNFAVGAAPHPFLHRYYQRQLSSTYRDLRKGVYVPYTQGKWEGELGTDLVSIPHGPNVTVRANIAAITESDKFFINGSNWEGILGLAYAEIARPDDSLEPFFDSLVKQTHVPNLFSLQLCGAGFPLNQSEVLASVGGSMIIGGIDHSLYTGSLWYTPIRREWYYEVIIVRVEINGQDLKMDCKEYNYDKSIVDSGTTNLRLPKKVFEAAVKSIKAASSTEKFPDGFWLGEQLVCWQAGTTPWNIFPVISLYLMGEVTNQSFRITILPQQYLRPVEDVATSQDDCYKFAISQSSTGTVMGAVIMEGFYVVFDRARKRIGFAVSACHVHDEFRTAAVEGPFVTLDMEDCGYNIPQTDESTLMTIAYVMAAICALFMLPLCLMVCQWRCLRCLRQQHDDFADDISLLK

As for `NC1=NC(c2ccccc2)(C2CCCCC2)C(=O)N1CCCO` (centres undefined), inhibition was half-maximal at 4.8 µM (IC50).

`CCc1cc(C2(c3cccc(-c4cncnc4)c3)N=C(N)N(C)C2=O)cc(CC)n1` (centres undefined) gave an IC50 of 0.03 µM.

Take `NC1=NC(c2ccccc2)(c2ccccc2)C(=O)N1`: 20 µM corresponded to half-maximal inhibition (IC50).

Turning to `CCN1C(=O)C(c2ccccc2)(c2ccccc2)N=C1N`, the IC50 was 8 µM.
